Test results: patent publication US5750531A, “Pyrimidine derivatives and processes for the preparation thereof” (Yuhan Corporation, priority 1994, dated 1998)
Counter-ions that a name gives are not always drawn.

Columns and labels:
[1] = system: gastric secretion; experiment: Inhibition of gastric secretion (pylorus ligation, Shay method); type: in vivo, Male Sprague-Dawley rats; settings: 20 mg/kg intraduodenally, 5 hours; for Rel. Conc.: acid concentration relative to omeprazole; for Relative Acid Output: acid output relative to omeprazole; for Rel. Vol.: gastric juice volume relative to omeprazole
Protocol: Inhibition of gastric secretion […] Under ether anesthesia, the abdomen was incised, and the pylorus was ligated. […] After closing the abdominal cavity, the rats were placed for 5 hours and then killed by cervical dislocation. The stomach was extracted to obtain gastric juice. The gastric juice was centrifuged at 1,000 g to remove precipitates. The amount and acidity of the gastric juice were measured. Relative volumes, relative acid concentrations and relative acid outputs of the test compounds were calculated from equations(I), (II) and (III) and the results are shown in Table 2. […] Group 3) (II) […] (III)

[2] = biological target: proton pump(H^+ /K^+ ATPase); experiment: Inhibition of proton pump(H^+ /K^+ ATPase) activity; type: biochemical; settings: pH 6.0, 37° C., 30 minutes preincubation and 30 minutes reaction; read-out: IC50 Test compound
Protocol: Test 1: Inhibition of proton pump(H^+ /K^+ ATPase) activity
A proton pump enzyme source was prepared by the same method as in Experiment 1-1 of WO 94/14795. Further, the inhibitory effect of proton pump activity was measured by the same method as in Experiment 1-2 of WO 94/14795.
Namely, the proton pump activity stimulated by Mg^++ was used as a negative comparative group, and the activity stimulated by Mg^++ and K^+ was used as a positive comparative group. The comparative compound was omeprazole.
Test tubes were divided into 4 groups: Group 1 as negative comparative group(n=3), Group 2 as positive comparative group(n=3), Group 3(n=5×2) to be administered with the compound of the present invention and Group 4(n=5×2) to be administered with the comparative compound.
The inhibitory effects of Groups 3 and 4 on proton pump activity were measured by employing the compound prepared in Example and omeperazole, respectively, each of which was dissolved in dimethylsulfoxide at 5 different concentrations.
To each of Groups 1, 2, 3 and 4 were added 100 μl of magnesium chloride(40 mM) dissolved in 40 mM Tris-HCl buffer(pH 6.0) and 100μ of the enzyme source. Then, 50μ of potassium chloride(50 mM) and 50 μl of ammonium chloride(6 mM) dissolved in 40 mM Tris-HCl buffer(pH 6.0) were added to all groups except for Group 1.
10 μl of dimethylsulfoxide was added to each of Groups 1 and 2; and to Group 3 was added 10 μl of the solution in which the compound prepared in Example was dissolved in dimethylsulfoxide at 5 different concentrations(n=5×2). To Group 4, 10 μl of the solution prepared by dissolving omeprazole in dimethylsulfoxide at 5 different concentrations(37.6, 21.4, 12.2, 7.0 and 4.0 μM) was added(n=5×2). 40 mM Tris-HCl buffer(pH=6.0) was added thereto so as to make the total volume 400 μl.
Thereafter, the test tubes of each Group were placed at 37° C. for 30 minutes for the preincubation. 100 μl of ATP solution (6.6 mM) was added until the reaction volume became 500 μl. After the reaction was carried out at 37° C. for 30 minutes, 25% cold trichloroacetic acid was added to terminate the enzyme reaction. The released inorganic phosphate was measured by an automatic analyzer(Express 550, Corning).
The difference between Group 1 and Group 2 represents the proton pump activity activated by K^+ only. The inhibition percentages of Groups 3 and 4 were calculated from Litchfield-wilcoxon equation[see, e.g., J. pharmacol. Exp. Ther., 96, 99(1949)]. The concentrations of the test compounds which inhibit 50% of the proton pump activity are represented as IC50 in Table 1.

Row | IC50 [2] [µM] | SMILES | Rel. Conc. [1] | Relative Acid Output [1] | Rel. Vol. [1]
1 | 0.7 | Cc1cc(F)ccc1Nc1nc(C)c(C)c(N2CCc3ccccc3[C@@H]2C)n1.Cl [Example 14, (S)-5,6-dimethyl-2-(2-methyl-4-fluorophenylamino)-4-(1-methyl-1,2,3,4-tetrahydroisoquinolin-2-yl)pyrimidine hydrochloride] | 0.3 | 0.72 | 0.53
2 | 0.6 | Cc1cc(F)ccc1Nc1nc(C)c(C)c(N2CCc3ccccc3C2C)n1.Cl (centres unmarked) [Example 12, 5,6-dimethyl-2-(2-methyl-4-fluorophenylamino)-4-(1-methyl-1,2,3,4-tetrahydroisoquinolin-2-yl)pyrimidine hydrochloride] | 0.29 | 0.75 | 1.64
3 | 1 | Cc1cc(N2CCc3ccccc3C2)nc(Nc2ccc(F)cc2C)n1.Cl [Example 34, 6-methyl-2-(2-methyl-4-fluorophenylamino)-4-(1,2,3,4-tetrahydroisoquinolin-2-yl)pyrimidine hydrochloride] | 1 | 0.99 | 0.99
4 | 3.6 | Cc1cc(F)ccc1Nc1nc(N2CCc3ccsc3C2C)nc(C)c1C.Cl (centres unmarked) [Example 77, 5,6-dimethyl-4-(2-methyl-4-fluorophenylamino)-2-(7-methyl-4,5,6,7-tetrahydrothieno[2,3-c]pyridin-6-yl)pyrimidine hydrochloride] | 1.63 | 1.30 | 1.48
5 | > 20 | CCc1cc(Nc2ccc(F)cc2C)nc(N2CCc3ccccc3C2)n1.Cl [Example 62, 6-ethyl-4-(2-methyl-4-fluorophenylamino)-2-(1,2,3,4-tetrahydroisoquinolin-2-yl)pyrimidine hydrochloride] | 0.31 | 0.67 | 0.61
6 | 2.5 | Cc1cc(N2CCc3ccccc3C2)nc(Nc2ccc(F)cc2)n1.Cl [Example 35, 6-methyl-2-(4-fluorophenylamino)-4-(1,2,3,4-tetrahydroisoquinoline-2-yl)pyrimidine hydrochloride] | 0.84 | 0.94 | 1.05
7 | > 15 | CCc1cc(N2CCc3ccccc3C2)nc(N(C)c2ccccc2)n1.Cl [Example 39, 6-ethyl-2-(N-methylphenylamino)-4-(1,2,3,4-tetrahydroisoquinolin-2-yl)pyrimidine hydrochloride] | 0.18 | 0.56 | 0.58
8 | 0.4 | Cc1cc(F)ccc1Nc1nc2c(c(N3CCc4ccccc4C3C)n1)CCC2 (centres unmarked) [Example 29, hydrochloride] | 0.31 | 0.6 | 0.56
9 | 3.1 | CCc1nc(Nc2ccc(F)cc2)nc(N2CCc3ccccc3C2)c1C.Cl [Example 45, 5-methyl-6-ethyl-2-(4-fluorophenylamino)-4-(1,2,3,4-tetrahydroisoquinolin-2-yl)pyrimidine hydrochloride] | 0.75 | 0.89 | 0.84
10 | ~12.5 | CCc1cc(N2CCc3ccccc3C2C)nc(Nc2ccccc2C)n1.Cl (centres unmarked) [Example 8, 6-ethyl-2-(2-methylphenylamino)-4-(1-methyl-1,2,3,4-tetrahydroisoquinolin-2-yl)pyrimidine hydrochloride] | 0.12 | 0.42 | 0.43
11 | 2.1 | CCc1nc(Nc2ccc(F)cc2)nc(N2CCc3ccccc3C2C)c1C.Cl (centres unmarked) [Example 27, 5-methyl-6-ethyl-2-(4-fluorophenylamino)-4-(1-methyl-1,2,3,4-tetrahydroisoquinolin-2-yl)pyrimidine hydrochloride] | 0.61 | 0.81 | 0.7
